# Source: the OPERA property sets (Mansouri et al. 2018)
# Conditions: not given
SMILES,log10 Koc (L/kg),melting point [°C],boiling point [°C],log10 vapour pressure (mmHg),ready biodegradability,log10 Henry constant (atm·m³/mol),log10 Koa,solubility [µM]
CCOP(=S)(OCC)OCCSCC,2.59,,,,,,,
CCCCCCCCCCCCCCCCCC(N)=O,,109,,,,,,
COc1cc2c(c(OC)c1OC)-c1ccc(O)c(=O)cc1[C@@H](NC(C)=O)CC2,,178,,,,,,
Oc1ccc(Cl)c(Cl)c1Cl,,83.5,,,,,,
CCCCC(C)CCCC,,-87.7,165,,,,,
CCCCC(=O)CCCC,,-3.8,188,-0.258,,,,
NC(=O)OCc1ccccc1,,88,,,,,,
c1ccc2c(c1)CCCN2,,20,251,,,,,
Cc1cccc(C(N)=O)c1,,95,,,,,,
CCCCOC(=O)c1ccc(C(=O)OCCCC)c(C(=O)OCCCC)c1,,,,,readily biodegradable,,,
CC(=O)CC(=O)Nc1ccccc1C,,105,,,readily biodegradable,,,
C#CC(O)(CC)CC,,,138,,,,,
COc1ccc(C(=O)c2csc(S(N)(=O)=O)c2)cc1,,174,,,,,,
COC(=O)/C(C)=C/OP(=S)(OC)OC,,,,-2.92,,,,
CCc1cccc(-c2ccccc2)c1,,-27.5,284,,,,,
CCCCCC(C)C(C)C (stereo unspecified),,,164,,,,,
FC(F)(Cl)CCl,,-101,46.8,2.53,,,,
Nc1ccc([N+](=O)[O-])cc1[N+](=O)[O-],,180,334,,not readily biodegradable,,,
C=CC(C)CC (stereo unspecified),,-153,54.2,2.43,,,,
CCOC(C)=O,,-83.6,77.1,1.97,readily biodegradable,-3.87,2.7,
O=S(=O)(Sc1ccccc1)c1ccc(Cl)cc1,,-86.8,,,,,,
CC(C)(C)c1cc(O)c(C(C)(C)C)cc1O,,218,,,,,,
C=C(C)C1CC=C(C=O)CC1 (stereo unspecified),,,240,,,,,
CCCOC(=O)CCCCC(=O)OCCC,,-15.7,,,,,,
CC(C)(C)c1ccc(C(=O)O)cc1,,164,,,not readily biodegradable,,,

SMILES,log10 Koc (L/kg),melting point [°C],boiling point [°C],log10 vapour pressure (mmHg),ready biodegradability,log10 Henry constant (atm·m³/mol),log10 Koa,solubility [µM]
C=CCCCCCCC,,-81.3,147,0.732,not readily biodegradable,,3.83,
CC1(C)[C@@H](O)CC[C@]2(C)[C@H]3C(=O)C=C4[C@@H]5C[C@@](C)(C(=O)O)CC[C@]5(C)CC[C@@]4(C)[C@]3(C)CC[C@@H]12,,296,,,,,,
COc1cc(C=C2CCCC(=Cc3ccc(O)c(OC)c3)C2=O)ccc1O,,178,,,,,,
CC(C)CCCCCOC(=O)C(C)Oc1ccc(Cl)cc1Cl (stereo unspecified),,-37,,-5.47,,,,
CCCCCCCCCCCCCCCC1CCCCC1,,29,373,-6.46,,,,
COc1ccc(-c2coc3cc(O)ccc3c2=O)cc1,,256,,,,,,
CC(C)(C)c1cc(CCC(=O)OCC(COC(=O)CCc2cc(C(C)(C)C)c(O)c(C(C)(C)C)c2)(COC(=O)CCc2cc(C(C)(C)C)c(O)c(C(C)(C)C)c2)COC(=O)CCc2cc(C(C)(C)C)c(O)c(C(C)(C)C)c2)cc(C(C)(C)C)c1O,,,,,not readily biodegradable,,,
Clc1ccc2c(Cl)ccc(Cl)c2c1Cl,,,,,,,8.4,
COc1cccc(C=O)c1O,,44.5,266,,,,,
NC(=O)Nc1ccccc1Cl,1.61,,,,,,,
NNC(=O)c1ccc(Cl)cc1,,164,,,,,,
C/C(=C\C(=O)O)C1CCCCC1,,85.5,,,,,,
COc1ccc(I)cc1,,53,238,,,,,
CCCCCCCCCCCCCCCCCCN=C=O,,20,300,,not readily biodegradable,,,
Cc1ccc(C(C)(C)C)c(O)c1,,46.5,,,not readily biodegradable,,,
COc1ccc(F)cc1,,-45,157,,,,,
Cc1[nH]nc(Cl)c1[N+](=O)[O-],,111,,,,,,
Clc1ccccc1Br,,-12.3,204,,,,,
Cc1cccc(NC(=O)c2ccccc2C(=O)O)c1,,150,,,,,,
CCCCCCCCC1CCCCC1,,-20,264,-2.04,,,,
CN1CC[C@]23c4c5ccc(O)c4O[C@H]2C(=O)CC[C@@]3(O)[C@H]1C5,,248,,,,,,
CCCCCCCCCCC(Br)C(=O)O (stereo unspecified),,32,,,,,,
O=C(C=Cc1ccccc1)OCC=Cc1ccccc1,,44,,,,,,
CCC(=O)C(CC(C)N1CCOCC1)(c1ccccc1)c1ccccc1 (stereo unspecified),,75.5,,,,,,
CC(C)c1ccccc1C(=O)O,,,,-3.46,,,,

SMILES,log10 Koc (L/kg),melting point [°C],boiling point [°C],log10 vapour pressure (mmHg),ready biodegradability,log10 Henry constant (atm·m³/mol),log10 Koa,solubility [µM]
CCCCCCCCN(CCCCCCCC)CCCCCCCC,,,366,,readily biodegradable,,,
CNC(=O)ON=C(C)SC,1.3,78,,-5.27,,,,
CC1=CC(=O)OC1=O,,7.5,214,,,,,
CCCCCCCCCC(=O)Cl,,-34.5,,,,,,
CCC1(C)CC(=O)NC1=O (stereo unspecified),,65,,,,,,
CCCCCCCCCCC(=O)CC,,31,,,,,,
CCC(=O)c1ccc(N)cc1,,140,,,,,,
CSB(C)C,,-84,71,,,,,
CCSSCC,,-102,154,0.631,,-2.67,,2450
O=[N+]([O-])c1ccc(C2CCCCC2)cc1,,58.5,,,,,,
CCCCCCN,,-22.9,133,0.954,readily biodegradable,-4.57,,
NC(=O)Nc1ccc(Oc2ccccc2)cc1,2.56,,,,,,,
O=C(Nc1ccccc1)NC1CCCCC1,2.07,,,,,,,
O=C(C(Cl)(Cl)Cl)C(Cl)(Cl)Cl,,-2,203,,,,,
Cl[C@@H]1CCCC[C@H]1Cl,,-1.5,200,,,,,
Cc1ccccc1F,,-62,115,1.39,,,,
C#C/C=C\C,,,48.4,,,,,
COc1ccc2c(c1)c(CC(=O)OCC(=O)O)c(C)n2C(=O)c1ccc(Cl)cc1,,152,,,,,,
Fc1ccc(NC(=S)Nc2cc(Cl)cc(Cl)c2)cc1,,164,,,,,,
C=C1CC[C@@]2(O)[C@H]3Cc4ccc(O)c5c4[C@@]2(CCN3CC2CC2)[C@H]1O5,,189,,,,,,
CCC1(CC)C(=O)NC(=S)NC1=O,,180,,,,,,
COC(C)(OC)OC,,,108,,,,,
Clc1ccc2c(c1)C(c1ccccc1)=NCc1nncn1-2,,228,,,,,,
CC1(C)CC1,,-109,20.6,,,,,
COCOC,,-105,42,2.6,,-3.76,,

SMILES,log10 Koc (L/kg),melting point [°C],boiling point [°C],log10 vapour pressure (mmHg),ready biodegradability,log10 Henry constant (atm·m³/mol),log10 Koa,solubility [µM]
FC(F)(F)C(F)(F)C(F)(F)C(F)(F)C(F)(F)C(F)(F)OC(F)(F)C(F)(F)C(F)(F)C(F)(F)C(F)(F)C(F)(F)F,,-90,181,,,,,
CCC(C)(C)c1cc(C)cc(C(C)(C)CC)c1O,,,283,,,,,
CC[C@@H](O)[C@@H]1CCCCN1,,121,226,,,,,
CC(CCO)C(F)(F)F (stereo unspecified),,,140,,,,,
IC(I)=C(I)I,,187,,,,,,
CCSCC,,-104,92.1,1.78,,-2.77,,
FC(F)(F)C(F)(F)C(F)(F)C(F)(F)F,,-128,-1.9,3.3,,,,
O=C(O)c1ccc2cc(C(=O)O)ccc2c1,,,,,not readily biodegradable,,,
CN1CCN(C(=O)OC2c3nccnc3C(=O)N2c2ccc(Cl)cn2)CC1 (stereo unspecified),,178,,,,,,
Clc1cc(Cl)c(Cl)c(-c2c(Cl)c(Cl)cc(Cl)c2Cl)c1Cl,6.36,,,,,-4.74,,
CCCCCCCCCCCCCCCCCCc1ccccc1,,29,408,,,,,
Cc1ccc2[nH]cnc2c1,,116,,,,,,
O=c1[nH]c(=O)n([C@H]2CC[C@@H](CO)O2)cc1Br,,180,,,,,,
Nc1cccc2c(O)nnc(O)c12,,330,,,,,,
Clc1cc(Cl)cc(Oc2ccccc2)c1,,,,-3,,,,
C1CCOC1,,-108,65,2.21,readily biodegradable,-4.15,2.86,
O=C1CCCC1C1CCCC1 (stereo unspecified),,-13,232,,,,,
CNC(=O)Nc1ccccc1,1.29,,,,,,,
CC(C)CC(=O)CC(C)C,,-41.5,169,0.217,,,,
CCc1ccccn1,,-63.1,149,0.689,,-4.78,,
C=CC[C@H](O)CCC,,,152,,,,,
Nc1ccc([N+](=O)[O-])cc1C(=O)c1ccccc1,,163,,,,,,
Cl.Nc1ccccc1,,198,,,,,,

# Same assay, conditions: fish
SMILES,log10 BCF,log10 biotransformation half-life (days)
CC(C)(C)c1ccc(C(=O)O)cc1,0.66,
C=CCCCCCCC,3.17,0.52
CCCCCCCCC1CCCCC1,,1.1
CCCCCCCCN(CCCCCCCC)CCCCCCCC,1.93,
O=C(O)c1ccc2cc(C(=O)O)ccc2c1,0.81,
Clc1cc(Cl)c(Cl)c(-c2c(Cl)c(Cl)cc(Cl)c2Cl)c1Cl,5.82,
Clc1ccc(Cl)c(-c2c(Cl)cc(Cl)c(Cl)c2Cl)c1,,2.23
